The source of these data is US20190030182A1, “WATER-SOLUBLE POLYMER-LINKED BINDING MOIETY AND DRUG COMPOUNDS” (Nektar Therapeutics, priority 2011, published 2019).

Molecules are shown by their SMILES.

The test system of series [1] is N87 gastric carcinoma xenografts. The series is described as follows: Antitumor activity in N87 (HER2 overexpressing gastric carcinoma) xenografts. Format: in vivo, female SCID mice. The following applies: single i.v.; for Animals with tumors in inhibition (number/group) / Animals with tumors in regression (number/group) / Mean Tumor Growth Inhibition / Regression: Day 35; for Highest Tumor Volume Recorded / Lowest Tumor Volume Recorded / Tumor Volume on Study Termination (Day 35) / Tumor Volume on Treatment Initiation (Day 0): Mean±SEM; for Tumor Volume on Treatment Initiation (Day 0): baseline. The source says:
The objective of this study was to evaluate the antitumor activity of a single administration of anti-HER2 targeted PEG-conjugated docetaxel on N87 gastric carcinoma xenografts in female SCID mice.
Animal Husbandry: Female C.B.-17 SCID mice (5-6 weeks old), purchased from Charles River Laboratories were used for this study. Upon arrival, the mice were housed in ventilated polycarbonate cages with sterile bedding at five animals per cage and acclimated for a minimum of three days. The cages were identified by cage labels or tags. Sterilized (autoclaved or irradiated) water and commercial rodent diet were supplied ad libitum. Cages, bedding and water bottles were changed at least once a week and food was replenished as needed. The animals were maintained at a temperature
Tumor Cell Preparation: All handling and preparation of cells were conducted in a biosafety cabinet for sterility and safety. N87, gastric carcinoma cells from the NEKTAR liquid nitrogen freezers were used for this study. The cells were grown in sterile tissue culture flasks with RPMI 1640 media containing 10% Fetal Bovine Serum (FBS) until 85% confluence. To prepare for implantation, the cells in the flasks were rinsed briefly with an appropriate amount of 0.25% trypsin solution. The rinsate was removed and replaced with 2 to 3 mL of fresh 0.25% trypsin solution. The flasks were then placed in a 37′C incubator for 5 minutes. When the cells dissociated, an appropriate amount of complete growth media was added to neutralize the trypsin. The suspension was centrifuged at 1000 rpm for 10 minutes after which the supernatant was discarded. The cells were washed by resuspending the pellet in an appropriate volume of serum free media. A sample was removed for counting and the rest of the suspension was again centrifuged at 1000 rpm for 10 minutes. After centrifugation, the supernatant was discarded and the cell pellet resuspended in serum free media at an appropriate volume determined by the cell count.
Tumor Cell Implantation: All handling of animals and procedures were done in a biosafety cabinet. The animals' flanks were shaved prior to the day of implantation. The mice were anesthetized via isoflurane inhalation, when in proper anesthetic plane; the flanks were wiped with 70% isopropanol followed by implantation of the NCI N87 cells at 1×10^7 cells/site in 0.2 mL volume (in 50% Matrigel®) injected subcutaneous on the right flank of the animals. The animals were distributed accordingly based on the randomization generated by the StudyLog® software.
Treatment Groups: There were 5 groups with 8 to 10 animals each. Included were vehicle (Saline), Docetaxel at 10 mg/kg and 20 mg/kg, Affibody A-linear 2 kD PEG-docetaxel 10 mg/kg (Example 6) (Docetaxel concentration) and Affibody A-linear 20 kD PEG-docetaxel at 10 mg/kg (Example 6) (Docetaxel concentration) respectively.
Treatment Administration: The animals were distributed based on the randomization generated by the StudyLog® software. The mean tumor volumes on treatment day (Day 0) ranged from 209±8 mm^3 to 239±15 mm^3 (Mean±SEM). All test articles were diluted in sterile saline to the appropriate concentration and were administered as single dose to the appropriate treatment group via intravenous injection (i.v.). Animals were warmed in clear acrylic hotboxes to facilitate venous dilation. While in the hotboxes, the animals were closely observed for signs of overheating and distress. When the animals were amply warmed, they were removed from the hotboxes and transferred into appropriate mouse restrainers. The tails were wiped with alcohol pads and the test article in a syringe with a 27 gauge needle was injected into the lateral tail vein. Maximum treatment volume for the i.v. injections will not exceed 20 mL/kg.
Tumor Measurements and Body Weights: Tumors size was monitored at least twice weekly. Dimensions (length and the width) were measured using digital calipers. Tumor volume was computed using the formula: […]

A short description of series [2]: Body weight in the N87 xenograft study. Format: in vivo, female SCID mice. The procedure:
Where: L=length of the tumor in millimeters and W=width of the tumor in millimeters Tumor growth on each animal was monitored to a maximum volume of […]. Animals were weighed prior to implantation and at least twice weekly for the duration of the study.
Mean body weights ranged from 19.6±0.4 g to 20.7±0.5 g (Mean±SEM) on treatment day (FIG. 10). Greatest mean body weight loss observed was 4% in group 3 (docetaxel, 20 mg·kg) on day 4 followed by group 2 (Docetaxel, 10 mg/kg) at 2% observed on days 4 and 7 (FIG. 11). No abnormal clinical observations were noted throughout the study.

Series [3] deals with NCI-N87 cells (Her2 positive). The series is described as follows: In vitro cytotoxic activity (CytoTox-Glo), NCI-N87. Format: cell-based. The note with it: Homo sapiens, N87, 48 hours, medium pH 6.5. How it is done: (§1) The conjugates were also tested in a Her2 negative cell line, […] as an experimental control. Serial dilutions of the conjugates and control compound were prepared. Cells were lifted from the flask using 2 mL of trypsin for 5 min, neutralized with 8 mL of complete growth medium, and centrifuged at 1200 rpm for 5 min. The supernatant was aspirated and the cell pellet was washed with PBS, centrifuged, then resuspended in complete growth medium (McCoy's for SKOV3 and RPMI-1640 for N87 and SK-N-SH, supplemented with 10% heat inactivated FBS), pH 6.5. Cells were counted, diluted, and then plated in white, clear bottom 96-well plates at a density of 20,000 cells/well, then followed immediately by addition of conjugates and control compound. Cells were incubated with the test articles for 48 hours in a 37° C., 5% CO^2 incubator, and then analyzed for cytotoxic activity using Promega CytoTox-Glo chemiluminescent reagent (Cat#G9291). Signal was quantified with a Perkin Elmer TopCount plate reader, and the data was analyzed using the GraphPad Prism software. FIGS. 4, 5, and 6 are linear regression graphs for each cell line where mean RLU is plotted vs. concentration.

Series [4] deals with SKOV-3 cells (Her2 positive). The series is described as follows: In vitro cytotoxic activity (CytoTox-Glo), SKOV-3. Format: cell-based. The note with it: Homo sapiens, SK-OV-3; SKOV3, 48 hours, medium pH 6.5. The procedure:
as §1

For series [5], the system named is SK-N-SH cells (Her2 negative). The series is described as follows: In vitro cytotoxic activity (CytoTox-Glo), SK-N-SH. Format: cell-based. The note with it: Homo sapiens, 48 hours, medium pH 6.5. The procedure:
as §1

As to `CC(=O)O[C@@]12CO[C@@H]1C[C@H](O)[C@@]1(C)C(=O)[C@H](O)C3=C(C)[C@@H](OC(=O)[C@H](O)[C@@H](NC(=O)OC(C)(C)C)c4ccccc4)C[C@@](O)([C@@H](OC(=O)c4ccccc4)[C@H]21)C3(C)C` [Docetaxel, reference compound], in series [1] (Docetaxel Dose 10 mg/kg), the “Animals with tumors in inhibition (number/group)” value is listed as “(9/10)”, the “Animals with tumors in regression (number/group)” value is given as “(1/10)”, the “Mean Tumor Growth Inhibition” value was 67.5% and the Regression worked out at 26%. In series [1] (Docetaxel Dose 10 mg/kg), the “Highest Tumor Volume Recorded” value is listed as 452 ± 80 mm^3, the “Lowest Tumor Volume Recorded” value came out at 182 ± 25 mm^3, the “Tumor Volume on Study Termination (Day 35)” value was 452 ± 80 mm^3 and the “Tumor Volume on Treatment Initiation (Day 0)” value is reported as 224 ± 19 mm^3. For the same molecule, in series [1] (Docetaxel Dose 20 mg/kg), the “Animals with tumors in inhibition (number/group)” value is on record as “(9/10)”, the “Animals with tumors in regression (number/group)” value is listed as “(1/10)”, the “Mean Tumor Growth Inhibition” value came out at 85% and the Regression was found to be 10%. Further, in series [1] (Docetaxel Dose 20 mg/kg), the “Highest Tumor Volume Recorded” value was 330 ± 33 mm^3, the “Lowest Tumor Volume Recorded” value came out at 145 ± 8 mm^3, the “Tumor Volume on Study Termination (Day 35)” value is recorded as 330 ± 33 mm^3 and the “Tumor Volume on Treatment Initiation (Day 0)” value was found to be 225 ± 12 mm^3. Also, in series [2] (10 mg/kg, days 4 and 7), the “Mean body weight loss” value is given as 2%. Moreover, the “Greatest mean body weight loss” value in series [2] (20 mg·kg, day 4) turned out to be 4%. In addition, in series [3], a half-maximal effect (EC50) was put at 5.44 pM. Further, the EC50 in series [4] amounted to 1.9 nM. The same molecule came in with an EC50 in series [5] of 1.97 nM.
